Values of other authors, collected in US20150376703A1, “METHOD AND SYSTEM TO PREDICT RESPONSE TO PAIN TREATMENTS” (PATHWAY GENOMICS CORPORATION, priority 2013, published 2015).
Values belong to the molecule of their own block, whether it stands above or below them.

Legend:
[1] = system: Glycoprotein IIIa (PLA1/A2) subunit of glycoprotein IIb/IIIa; details: patients carrying the PLA2 polymorphism
[2] = molecular target: T1, ACE (I/D) (Homo sapiens, UniProt P12821); details: patients bearing the ACE-II-Allele
T1 construct: host or cells: patients (endogenous enzyme)
T1 sequence (P12821 30-1306): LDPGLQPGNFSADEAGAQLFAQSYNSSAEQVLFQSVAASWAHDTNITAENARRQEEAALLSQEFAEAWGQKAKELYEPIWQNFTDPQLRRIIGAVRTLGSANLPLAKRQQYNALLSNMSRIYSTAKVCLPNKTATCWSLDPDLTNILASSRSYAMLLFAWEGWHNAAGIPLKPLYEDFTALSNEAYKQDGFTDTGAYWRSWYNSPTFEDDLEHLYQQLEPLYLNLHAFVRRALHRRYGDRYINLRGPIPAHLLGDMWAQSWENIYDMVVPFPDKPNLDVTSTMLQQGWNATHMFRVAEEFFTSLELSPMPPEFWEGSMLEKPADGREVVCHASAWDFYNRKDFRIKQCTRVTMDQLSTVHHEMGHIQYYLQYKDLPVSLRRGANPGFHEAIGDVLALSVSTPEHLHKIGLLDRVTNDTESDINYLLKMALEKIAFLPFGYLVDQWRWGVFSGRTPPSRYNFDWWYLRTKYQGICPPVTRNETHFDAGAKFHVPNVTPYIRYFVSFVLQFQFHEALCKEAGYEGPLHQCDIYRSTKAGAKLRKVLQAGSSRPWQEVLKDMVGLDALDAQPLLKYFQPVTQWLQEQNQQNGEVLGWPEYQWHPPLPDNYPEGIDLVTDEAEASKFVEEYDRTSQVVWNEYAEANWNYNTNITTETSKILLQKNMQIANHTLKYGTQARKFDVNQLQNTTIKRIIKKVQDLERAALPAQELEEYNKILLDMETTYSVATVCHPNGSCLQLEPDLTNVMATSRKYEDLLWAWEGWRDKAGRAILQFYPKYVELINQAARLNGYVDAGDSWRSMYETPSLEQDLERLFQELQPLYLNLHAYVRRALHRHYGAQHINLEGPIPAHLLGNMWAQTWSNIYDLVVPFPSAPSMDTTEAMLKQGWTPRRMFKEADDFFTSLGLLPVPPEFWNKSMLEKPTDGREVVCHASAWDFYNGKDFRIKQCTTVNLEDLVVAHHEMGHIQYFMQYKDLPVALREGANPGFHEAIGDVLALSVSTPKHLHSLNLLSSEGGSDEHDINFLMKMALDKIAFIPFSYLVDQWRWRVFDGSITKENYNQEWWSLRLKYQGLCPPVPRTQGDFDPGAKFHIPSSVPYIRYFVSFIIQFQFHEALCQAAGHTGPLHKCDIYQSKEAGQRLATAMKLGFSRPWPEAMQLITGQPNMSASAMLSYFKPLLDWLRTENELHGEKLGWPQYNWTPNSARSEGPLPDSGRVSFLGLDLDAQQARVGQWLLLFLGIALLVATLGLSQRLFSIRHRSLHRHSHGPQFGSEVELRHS

[3] = system: Alpha-Adducin; details: patients who share the 460Gly/Trp polymorphism
[4] = molecular target: T2, KCNE2 (T8A in MiRP 1) (Homo sapiens, UniProt Q12809+Q9Y6J6, T8A)
T2 construct: host or cells: patients (endogenous protein)
T2 sequence (Q9Y6J6 whole entry T8A): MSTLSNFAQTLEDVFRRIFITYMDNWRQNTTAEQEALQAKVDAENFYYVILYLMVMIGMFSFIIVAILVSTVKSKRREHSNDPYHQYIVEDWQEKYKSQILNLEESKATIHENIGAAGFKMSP
T2 sequence (Q12809 whole entry): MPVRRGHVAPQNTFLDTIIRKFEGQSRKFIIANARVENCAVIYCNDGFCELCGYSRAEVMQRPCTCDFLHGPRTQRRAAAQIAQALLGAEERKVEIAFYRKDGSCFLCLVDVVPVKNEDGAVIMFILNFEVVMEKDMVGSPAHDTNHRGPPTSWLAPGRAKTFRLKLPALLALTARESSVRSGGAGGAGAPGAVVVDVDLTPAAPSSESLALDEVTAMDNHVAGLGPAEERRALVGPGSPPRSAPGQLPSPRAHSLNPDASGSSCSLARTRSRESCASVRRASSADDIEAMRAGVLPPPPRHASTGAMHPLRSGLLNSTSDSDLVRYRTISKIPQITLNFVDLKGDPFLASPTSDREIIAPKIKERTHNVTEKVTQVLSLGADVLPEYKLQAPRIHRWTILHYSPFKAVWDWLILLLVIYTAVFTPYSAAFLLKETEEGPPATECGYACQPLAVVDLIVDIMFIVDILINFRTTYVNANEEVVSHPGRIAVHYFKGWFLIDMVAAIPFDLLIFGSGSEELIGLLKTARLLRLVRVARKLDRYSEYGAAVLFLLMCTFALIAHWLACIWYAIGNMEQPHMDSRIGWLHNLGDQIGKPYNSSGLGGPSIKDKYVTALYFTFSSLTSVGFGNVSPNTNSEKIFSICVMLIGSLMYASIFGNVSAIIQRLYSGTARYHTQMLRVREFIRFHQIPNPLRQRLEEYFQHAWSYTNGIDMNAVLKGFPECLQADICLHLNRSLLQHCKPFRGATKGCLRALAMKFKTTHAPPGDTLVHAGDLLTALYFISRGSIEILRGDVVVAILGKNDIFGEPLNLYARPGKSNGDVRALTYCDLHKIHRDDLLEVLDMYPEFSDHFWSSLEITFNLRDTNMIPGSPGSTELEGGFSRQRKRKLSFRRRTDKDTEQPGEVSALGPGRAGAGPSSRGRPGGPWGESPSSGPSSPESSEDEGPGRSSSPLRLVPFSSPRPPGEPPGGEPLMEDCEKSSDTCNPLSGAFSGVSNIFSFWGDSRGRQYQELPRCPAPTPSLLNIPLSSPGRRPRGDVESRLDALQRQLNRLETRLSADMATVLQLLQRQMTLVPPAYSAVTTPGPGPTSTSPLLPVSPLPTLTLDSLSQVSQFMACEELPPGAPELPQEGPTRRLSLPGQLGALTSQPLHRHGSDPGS

[5] = molecular target: T3, 5-Lipoxygenase (ALOX5) (Homo sapiens, UniProt P09917); details: patients who share a specific tandem repeat in the promoter
T3 construct: host or cells: patients (endogenous enzyme)
T3 sequence (P09917 1-674): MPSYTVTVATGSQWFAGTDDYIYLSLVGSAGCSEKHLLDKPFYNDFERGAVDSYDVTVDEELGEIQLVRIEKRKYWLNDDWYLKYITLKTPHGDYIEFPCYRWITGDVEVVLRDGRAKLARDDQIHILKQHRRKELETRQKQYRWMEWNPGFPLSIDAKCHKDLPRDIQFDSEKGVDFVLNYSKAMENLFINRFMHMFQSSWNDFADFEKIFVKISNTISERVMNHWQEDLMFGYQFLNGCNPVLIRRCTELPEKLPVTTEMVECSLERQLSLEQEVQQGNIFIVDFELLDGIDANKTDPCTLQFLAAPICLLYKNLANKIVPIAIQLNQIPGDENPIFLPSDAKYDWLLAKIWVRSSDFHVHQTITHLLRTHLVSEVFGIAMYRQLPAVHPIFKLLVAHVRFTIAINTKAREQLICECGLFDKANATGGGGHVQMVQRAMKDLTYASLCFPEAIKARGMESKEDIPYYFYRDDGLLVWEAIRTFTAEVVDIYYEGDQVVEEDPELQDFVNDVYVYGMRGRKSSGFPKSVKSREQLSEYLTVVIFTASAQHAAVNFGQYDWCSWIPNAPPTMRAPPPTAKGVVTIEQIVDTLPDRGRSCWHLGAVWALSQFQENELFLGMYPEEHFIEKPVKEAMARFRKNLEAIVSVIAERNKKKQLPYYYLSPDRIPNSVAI

Molecule: CC(=O)Oc1ccccc1C(=O)O [Aspirin]
- Clinical Result: antiplatelet effect [1]: Reduced response in patients

Molecule: C[C@H](N[C@@H](CCc1ccccc1)C(=O)O)C(=O)N1CCC[C@H]1C(=O)O [Enalaprilat]
- Clinical Result: response [2]: Better response of patients

Molecule: NS(=O)(=O)c1cc2c(cc1Cl)NCNS2(=O)=O [Hydrochlorothiazide]
- Clinical Result: sensitivity [3]: hypertension). Higher

Molecule: O=c1[nH]c2ccccc2n1CCCN1CCN(C(c2ccccc2)c2ccccc2)CC1 [Oxatomid]
- Clinical Result: adverse effect [4]: Drug induced Long-QT-

Molecule: Cc1cc(NS(=O)(=O)c2ccc(N)cc2)no1 [Sulfamethoxazol]
- Clinical Result: adverse effect [4]: Drug induced Long-QT-

- Clinical Result [5]: No effect in patients who
Molecule: CC(c1cc2ccccc2s1)N(O)C(N)=O (centres unmarked) [Zileuton]

- Clinical Result: response [2]: Better response of patients
Molecule: CCOC(=O)[C@H](CCc1ccccc1)N[C@@H](C)C(=O)N1CCC[C@H]1C(=O)O [enalapril]

B1: Abciximab (antibody, chains of the INN, looked up, V domains shown)
VH: EVQLQQSGTVLARPGASVKMSCEASGYTFTNYWMHWVKQRPGQGLEWIGAIYPGNSDTSYIQKFKGKAKLTAVTSTTSVYMELSSLTNEDSAVYYCTLYDGYYVFAYWGQGTLVTVSA
VL: EIVLTQSPVTLSVTPGDSVSLSCRASRDISNNLHWFQQTSHESPRLLIKYASQSMSGIPSRFSGSGSGTDFTLSINSVETEDFGMYFCQQTNSWPYTFGGGTKLEIK
- Clinical Result: antiplatelet effect [1]: Reduced response in patients
